In patent US20030092684A1, “Compositions and methods for treating hemorrhagic virus infections and other disorders” (priority 1999, published 2003):
Values joined by “and” are separate entries in the source; they are usually repeats but may differ in a detail not shown here. Equal entries are not always repeated. Where two headings read alike, the source gives them in different places.

Tests used:
[1] = tested on: Marburg virus strain Popp; set-up: species or system guinea-pigs; settings: guinea pig, in vivo
[2] = tested on: Lassa virus strain Josiah; set-up: species or system BALB/c mice; settings: mouse, in vivo
Dengue virus type 2 = assay: Dengue virus infection treated with tetracycline compounds (Example 4): mortality; format: in vivo, BALB/c mice; settings: 20 mg/kg orally twice per day from day -3 until day 8
TNF-α and IL-1β [3] = assay: Serum TNF and IL-1 in Dengue infected mice (Example 4); format: in vivo, BALB/c mice; settings: for IL-1 / TNF: 20 mg/kg orally twice per day from day -3 until day 8
Dengue virus, type 2 = tested on: Dengue virus, type 2; set-up: species or system BALB/c mice; settings: mouse, in vivo, po
TNF-α and IL-1β [4] = assay: Serum TNF-α and IL-1β in Dengue infected mice (Example 5); format: in vivo, BALB/c mice; settings: 100 μg orally twice per day from day 3 until day 8
IL-1RA and sTNFrl = IL-1RA and sTNFrl in human donor serum after oral antibiotic stimulation; format: in vivo; settings: after stimulation, 2 persons, on the 24th hour
Mononuclear human cells = assay: In vitro activation of mononuclear human cells by antibiotics: IL-1RA and sTNFrI production; format: cell-based; settings: 0.06 mg/ml, activation for 2 hours
[5] = tested on: mice with the SEB-induced septic shock; set-up: species or system Balb/c mice; settings: mouse, in vivo
[6] = 58 mg/kg i.m. during 17 day period without virus injection
[7] = 7 day period without viral infection

For `CN(C)C1C(O)=C(C(N)=O)C(=O)C2(O)C(O)=C3C(=O)c4c(O)cccc4C(C)(O)C3CC12` (stereo not drawn) [Tetracycline, 4-dimethylamino-1,4,4a,5,5a,6-11,12a-octahydro-3,6,10,12,12a-pentahydroxy-6-methyl-1,11-dioxo-2-naphthacenecarboxamide], the “m.t.d. (mean time to death)” value [1] was 8.75 and 8.06 and 7.91, the survival [2] was 80% and the death ([2]; 58 mg/kg) was 4. The Survival/total amount (Dengue virus type 2; day 0) was 20/20, the Survival/total amount (Dengue virus type 2; day 1) was 20/20 and the Survival/total amount (Dengue virus type 2; day 3) was 20/20. For the same molecule, the Survival/total amount (Dengue virus type 2; day 5) was 16/20, the Survival/total amount (Dengue virus type 2; day 6) was 11/20 and the Survival/total amount (Dengue virus type 2; day 7) was 8/20. The Survival/total amount (Dengue virus type 2; day 12) was 8/20, the Survival/total amount (Dengue virus type 2; day -1) was 20/20 and the “increase of the concentration of TNF” value (TNF-α and IL-1β [3]; 20 mg/kg orally twice per day) was 2 fold. The “level of the cytokines in the serum versus control A2 group” value (TNF-α and IL-1β [3]; 20 mg/kg twice per day from day -3 until day 8) was “statistically lower”, the “increase of the concentration of IL-1” value (TNF-α and IL-1β [3]; by day 5 of the disease, 20 mg/kg orally twice per day) was 10 fold and the IL-1 (TNF-α and IL-1β [3]; day 0) was 6.8 pg/mL. For the same molecule, the IL-1 (TNF-α and IL-1β [3]; day 1) was 10.8 pg/mL, the IL-1 (TNF-α and IL-1β [3]; day 3) was 46.8 pg/mL and the TNF (TNF-α and IL-1β [3]; day 3) was 14.0 pg/mL. For the same molecule, the IL-1 (TNF-α and IL-1β [3]; day 5) was 66.0 pg/mL, the TNF (TNF-α and IL-1β [3]; day 5) was 28.8 pg/mL and the IL-1 (TNF-α and IL-1β [3]; day 6) was 56.8 pg/mL. The TNF (TNF-α and IL-1β [3]; day 6) was 38.4 pg/mL, the IL-1 (TNF-α and IL-1β [3]; day 7) was 10.2 pg/mL and the TNF (TNF-α and IL-1β [3]; day 7) was 33 pg/mL. The IL-1 (TNF-α and IL-1β [3]; day 12) was 7.4 pg/mL, the TNF (TNF-α and IL-1β [3]; day 12) was 19.6 pg/mL and the IL-1 (TNF-α and IL-1β [3]; day -1) was 6.8 pg/mL. The TNF (TNF-α and IL-1β [3]; day -1) was 18.4 pg/mL, the Survived/died (Dengue virus, type 2) was 9/11 and the “m.t.d. (average lifetime)” value (Dengue virus, type 2) was 8.40 ± 0.73. It also gave an IL-1 (TNF-α and IL-1β [4]; day 0) of 6.0 pg/mL, a TNF (TNF-α and IL-1β [4]; day 0) of 7.8 pg/mL and an IL-1 (TNF-α and IL-1β [4]; day 1) of 12.0 pg/mL. For the same molecule, the TNF (TNF-α and IL-1β [4]; day 1) was 13.8 pg/mL, the IL-1 (TNF-α and IL-1β [4]; day 3) was 36.0 pg/mL and the TNF (TNF-α and IL-1β [4]; day 3) was 38.2 pg/mL. It also gave an IL-1 (TNF-α and IL-1β [4]; day 5) of 48.6 pg/mL, a TNF (TNF-α and IL-1β [4]; day 5) of 56.2 pg/mL and an IL-1 (TNF-α and IL-1β [4]; day 6) of 62.4 pg/mL. The TNF (TNF-α and IL-1β [4]; day 6) was 156.8 pg/mL, the IL-1 (TNF-α and IL-1β [4]; day 12) was 15.6 pg/mL and the TNF (TNF-α and IL-1β [4]; day 12) was 18.0 pg/mL. For the same molecule, the IL-1 (TNF-α and IL-1β [4]; day 21) was 5.8 pg/mL, the TNF (TNF-α and IL-1β [4]; day 21) was 7.4 pg/mL and the “IL-1RA in the donor serum” value (IL-1RA and sTNFrl) was 130 ± 6.8 pg/mL. The “sTNFrl in the donor serum” value (IL-1RA and sTNFrl) was 580 ± 18.2 pg/mL, the IL-1RA (Mononuclear human cells; 0 hours) was 22 + 1.4 pg/ml and the sTNFrI (Mononuclear human cells; 0 hours) was 19 + 1.2 pg/ml. For the same molecule, the IL-1RA (Mononuclear human cells; 3 hours) was 86 + 4.6 pg/ml, the sTNFrI (Mononuclear human cells; 3 hours) was 185 + 8.4 pg/ml and the IL-1RA (Mononuclear human cells; 6 hours) was 186 + 8.2 pg/ml. The sTNFrI (Mononuclear human cells; 6 hours) was 204 + 9.2 pg/ml, the IL-1RA (Mononuclear human cells; 24 hours) was 140 + 7.6 pg/ml and the sTNFrI (Mononuclear human cells; 24 hours) was 201 + 8.6 pg/ml. The “mice survived 96 hours postinduction” value [5] was “About 20%”, the “toxicity to control groups” value [6] was “not toxic” and the survival ([6]; of 6 guinea pigs) was 6. The “toxicity to control groups” value [7] was “not toxic”, the death ([7]; of 20 mice) was 0 and the survival ([7]; of 20 mice) was 20.
